Consider 20 compounds from PubChem BioAssay AID2061108 (Research group of Professor Matthew Todd, School of …, 2025).

Common to all, as to assay: antibacterial and antifungal growth inhibition panel, profiling panel, Idler compounds, first plate, PMBN-permeabilized strains (AID 2061108)
What all share (set-up): haemolysis: dose or concentration left out as unconfirmed

The subject of assay [1] is S. aureus ATCC 9144 growth inhibition, 100 uM. As to conditions: S. aureus ATCC 9144 growth inhibition; at 100 µM; stronger effect = higher value.
Assay [2] concerns A. baumannii ATCC 17978 growth inhibition, 100 uM. As to conditions: S. aureus ATCC 9144 growth inhibition; measured here: A. baumannii ATCC 17978; at 100 µM; stronger effect = higher value.
In assay [3] the test system is A. baumannii ATCC 17978 + PMBN growth inhibition, 100 uM. As to conditions: A. baumannii plus PMBN growth inhibition, 100 µM; stronger effect = higher value.
For assay [4], the system named is M. abscessus growth inhibition, 10 uM. As to conditions: S. aureus ATCC 9144 growth inhibition; measured here: M. abscessus; at 10 µM.
Assay [5] concerns C. albicans NCPF 3281 growth inhibition, 100 uM. The settings on record: S. aureus ATCC 9144 growth inhibition; measured here: C. albicans NCPF 3281; at 100 µM; stronger effect = higher value.
In assay [6] the test system is E. coli NCTC 12923 growth inhibition, 100 uM. As to conditions: E. coli NCTC 12923 growth inhibition, 100 µM; stronger effect = higher value.
Assay [7] has as its system E. coli NCTC 12923 + PMBN growth inhibition, 100 uM. The settings on record: S. aureus ATCC 9144 growth inhibition; measured here: E. coli plus PMBN; at 100 µM; stronger effect = higher value.
In assay [8] the test system is M. avium growth inhibition, 10 uM. The settings on record: M. avium growth inhibition, 10 µM.
Assay [9] has as its system red blood cell haemolysis. As to conditions: stronger effect = higher value; dose or concentration not given here.

Active and inactive are the calls of the source. No rule for the calls is given here.

The inhibition is the relative decrease from the control value, in per cent. For the compound `O=c1[nH]c(=O)c2cc(S(=O)(=O)Nc3cc(F)c(N4CCN(c5ccccn5)CC4)c(F)c3)ccc2[nH]1`, the inhibition was 10.2% (inactive) in [1]; 4.58% in assay [2]; 24% in [3]; -0.0939% in assay [4]; -115% in assay [5]; 0.946% in assay [6]. For the same compound, the figures for the inhibition in assay [7] and in [8] were 9.51% and 1.7%, respectively. For the same compound, the haemolysis in assay [9] amounted to 0.458%.

Take `Cc1ccc(C)c(N2CCN(C(=O)C3CCN(c4ncnc5c4sc4ncccc45)CC3)CC2)c1`: the inhibition in assay [1] was 6.17% (inactive); in assay [2], -3.57%; in assay [3], 5.07%; in assay [4], -1.18%; in assay [5] it was 24.6%; in assay [6] it was 9.19%. Further, the inhibition worked out at 0.988% in assay [7] and 9.54% in assay [8]. For the same compound, the haemolysis in [9] came out at 0.267%.

As to `O=S(=O)(F)c1cccc(NCc2ccc(F)cc2)n1`, the inhibition was 13% (inactive) in assay [1]; -3.33% in assay [2]; 16.7% in [3]; -1.1% in assay [4]; -98.2% in [5]; -1.49% in assay [6]. In addition, the inhibition in assay [7] is 0.494%; in assay [8], 1.19%. For the same compound, in assay [9], the haemolysis was -0.396%.

With `FC(F)Oc1ccc(-c2nnc3cncc(OCCCC(F)(F)F)n23)cc1`, the inhibition was -9.47% (inactive) in assay [1]; -14.8% in assay [2]; 4.86% in [3]; -0.237% in assay [4]; -49.2% in [5]; -7.16% in [6]. The inhibition is -9.02% in [7] and -0.289% in assay [8]. Moreover, the haemolysis in assay [9] stood at 0.0506%.

In the case of `Nc1ncnc2cc(-c3cccc(S(=O)(=O)NC(=O)C(N)Cc4ccccc4)c3)sc12` (stereo not given), the inhibition in assay [1] is -16.5% (inactive); in assay [2] it was 1.55%; in [3] it was 3.19%; in assay [4], -0.63%; in [5], -49.9%; in assay [6], -49.3%. In addition, the inhibition is -18.8% in [7] and 11.7% in [8]. For the same compound, in [9], the haemolysis worked out at 0.0594%.

`O=S(=O)(NC1(Cc2ccc(Cl)cc2Cl)CCC1)c1ccc(-c2nn[nH]n2)cc1`: the inhibition is 17% (inactive) in assay [1]; 22.7% in assay [2]; 65.8% in [3]; -1.11% in assay [4]; -103% in assay [5]; 0.135% in assay [6]. The inhibition in assay [7] came to 22.2%; in [8] it was 0.393%. For the same compound, the haemolysis in [9] was -0.271%.

For `N#Cc1c(N2Cc3cccc(O)c3C2)nc2ccccc2c1C(F)(F)F`, the inhibition in assay [1] is 97%; in assay [2], 23.8%; in assay [3] it was 33.9%; in assay [4] it was -1.26%; in assay [5] it was 3.66%; in assay [6], 2.16%. The inhibition in assay [7] worked out at 35.4%; in assay [8], 0.654%. Moreover, the haemolysis in [9] is -0.139%.

In the case of `Cn1nc(NC(=O)Nc2ccc(Cl)cc2)cc1C(C)(C)C`, the inhibition was -14.7% (inactive) in assay [1]; -22% in assay [2]; -3% in assay [3]; -0.422% in assay [4]; -94% in assay [5]; -25% in [6]. Moreover, the inhibition is -30.4% in assay [7] and 0.567% in assay [8]. The haemolysis in assay [9] amounted to 0.275%.

With `O=C(Cc1ccc(C(F)(F)F)nc1)N1Cc2cccnc2C1`, the inhibition is 6.84% (inactive) in assay [1]; 0.241% in assay [2]; 22% in assay [3]; -0.0961% in [4]; -94.2% in [5]; -5.95% in assay [6]. Further, the inhibition in assay [7] is -4.27%; in assay [8] it was 0.169%. For the same compound, the haemolysis in assay [9] amounted to 4.32%.

With `Cc1ccc(N2CN(CC(=O)Nc3ccccc3Cl)S(=O)(=O)c3cccnc32)cc1`, the inhibition in [1] was -17.7% (inactive); in [2], -6.75%; in assay [3], 4.43%; in assay [4], 0.131%; in assay [5], -124%; in assay [6], -45.3%. Further, the inhibition in assay [7] was -25.9%; in assay [8], -1.53%. Moreover, in assay [9], the haemolysis is 0.453%.

For the compound `COc1cc2nc(Nc3cc(C)[nH]n3)nc(N3CC(N(C)C)C3)c2cc1OC`, the inhibition in assay [1] is 33% (inactive); in assay [2], 3.33%; in assay [3] it was 17.5%; in assay [4], -0.369%; in assay [5] it was 13.3%; in [6], 5.14%. In addition, the inhibition was -10.1% in [7] and 1.81% in assay [8]. Besides, the haemolysis in assay [9] worked out at 0.198%.

As to `N#Cc1cc(-c2cccc(Cl)c2)no1`, the inhibition in [1] is 15.6% (inactive); in assay [2], -0.723%; in [3], 26.6%; in assay [4], 0.0599%; in assay [5], -135%; in assay [6] it was -0.811%. The inhibition worked out at 1.71% in [7] and 0.349% in assay [8]. In assay [9], the haemolysis is 6.05%.

Take `N#Cc1ccc(NC2Cc3cccc(O)c3C2)cc1C(F)(F)F` (stereo not given): the inhibition in [1] was 99.7%; in assay [2], 68.5%; in assay [3], 100%; in assay [4], -0.648%; in [5] it was 100%; in assay [6], 22.3%. In addition, the results for the inhibition in assay [7] and in assay [8] were 100% and -0.176%, respectively. In addition, in assay [9], the haemolysis is 2.84%.

Take `C=CC(=O)N1CCCc2c(C(=O)O)cccc21`: the inhibition in [1] was 17% (inactive); in assay [2], -1.2%; in assay [3], 18.6%; in assay [4], -0.114%; in assay [5], -51.3%; in [6], -5.27%. For the same compound, the inhibition in [7] is -5.12%; in assay [8] it was 0.285%. Further, the haemolysis in assay [9] is 0.129%.

On to `O=C(Nc1ccccc1)C(Cl)C(=O)c1ccccc1` (stereo not given), for which the inhibition in [1] is 100%; in assay [2], 37.9%; in assay [3], 98.6%; in assay [4], -1.14%; in assay [5] it was 101%; in [6], 20.3%. For the same compound, the results for the inhibition in assay [7] and in [8] were 61.4% and 1.66%, respectively. Besides, the haemolysis in assay [9] was -0.111%.

Regarding `O=S(=O)(Nc1ccc(Oc2ccccc2)cc1)c1ccc(-c2nn[nH]n2)cc1`, the inhibition is 70% (inactive) in assay [1]; -18.3% in assay [2]; 34.1% in assay [3]; -0.359% in assay [4]; -30.5% in assay [5]; 0.135% in assay [6]. In addition, the inhibition was found to be 21.7% in assay [7] and 0.208% in [8]. In addition, in assay [9], the haemolysis is 1.69%.

Turning to `COc1cccc(C(=O)NCCOCc2cccc(N)c2)c1`, the inhibition was 13.7% (inactive) in [1]; -1.45% in [2]; 23.9% in assay [3]; -0.253% in assay [4]; -63.9% in assay [5]; -10.5% in assay [6]. The inhibition in assay [7] was determined as 4.39%; in [8], 2.24%. Besides, the haemolysis in assay [9] amounted to 0.269%.

`CCCOc1cc(S(=O)(=O)n2cccn2)ccc1Br`: the inhibition was -33.2% (inactive) in assay [1]; -7.35% in [2]; 18.4% in assay [3]; -0.42% in assay [4]; -62.6% in assay [5]; -38.1% in assay [6]. For the same compound, the inhibition in assay [7] was -8.29%; in assay [8], -1.53%. Besides, the haemolysis in assay [9] amounted to 0.858%.

`Cc1cc(C)c(S(=O)(=O)N2CCC(C(=O)NCc3cccnc3)CC2)c(C)c1`: the inhibition in assay [1] was 12.6% (inactive); in assay [2] it was -2.53%; in assay [3], 25.7%; in [4], 0.182%; in assay [5] it was -44.9%; in [6], -1.08%. The results for the inhibition in assay [7] and in assay [8] were 5.73% and -0.596%, respectively. Moreover, in assay [9], the haemolysis was determined as 0.266%.

`O=C(NCCn1ccc2ccccc21)Nc1c[nH]c2ccccc12`: the inhibition is 1.75% (inactive) in assay [1]; 1.2% in assay [2]; 55% in [3]; 0.723% in assay [4]; -13.8% in assay [5]; -5.81% in [6]. Besides, the values for the inhibition in [7] and in [8] were 8.41% and 1.09%, respectively. Besides, in assay [9], the haemolysis amounted to 0.223%.
